Test [1] addresses T1, RNA-binding protein pos-1 (Caenorhabditis elegans, UniProt G5EF15).
T1 sequence (G5EF15 whole entry): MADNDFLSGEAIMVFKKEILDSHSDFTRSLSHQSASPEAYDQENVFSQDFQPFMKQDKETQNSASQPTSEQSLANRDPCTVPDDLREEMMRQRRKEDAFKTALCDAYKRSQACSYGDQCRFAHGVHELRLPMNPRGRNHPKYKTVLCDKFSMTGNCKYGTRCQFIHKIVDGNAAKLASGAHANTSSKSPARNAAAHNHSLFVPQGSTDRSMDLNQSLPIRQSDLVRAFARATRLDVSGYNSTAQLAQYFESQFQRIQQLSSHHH
Put plainly: disruptors of C. elegans POS-1 RNA interaction – biochemical, fluorescence polarization, dose response (AID 1964).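 Note: purified POS-1 fused to maltose binding protein made in E. coli; potency of compounds blocking POS-1 binding to fluorescent RNA.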 For orientation: Fluorescence polarisation rises when a labelled molecule tumbles more slowly, as on binding a larger partner.

For test [2], the target named is T2, Zinc finger protein mex-5 (Caenorhabditis elegans, UniProt Q9XUB2).
T2 sequence (Q9XUB2 whole entry): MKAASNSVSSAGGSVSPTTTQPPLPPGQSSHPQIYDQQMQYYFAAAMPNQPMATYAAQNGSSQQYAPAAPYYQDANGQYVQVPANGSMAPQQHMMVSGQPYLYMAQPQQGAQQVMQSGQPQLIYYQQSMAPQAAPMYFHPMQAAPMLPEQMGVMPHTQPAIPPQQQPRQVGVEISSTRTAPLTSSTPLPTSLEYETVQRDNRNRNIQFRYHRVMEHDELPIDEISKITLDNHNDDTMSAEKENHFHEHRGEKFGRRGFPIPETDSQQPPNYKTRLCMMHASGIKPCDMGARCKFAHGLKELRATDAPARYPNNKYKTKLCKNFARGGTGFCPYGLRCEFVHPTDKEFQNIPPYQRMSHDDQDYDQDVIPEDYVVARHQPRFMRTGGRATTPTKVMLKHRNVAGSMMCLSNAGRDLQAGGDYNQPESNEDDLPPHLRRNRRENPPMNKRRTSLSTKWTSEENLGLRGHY
The experiment in a line: potency of MEX-5 RNA-binding blockers – biochemical, C. elegans, fluorescence polarization, dose response (AID 1960).

Test [3] has as its system HEK293. The experiment in a line: cells. The following applies: Homo sapiens. Format: functional, cell-based.
Test [4] has as its target T3, Nuclear receptor subfamily 0 group B member 1 (Homo sapiens, UniProt P51843).
T3 sequence (P51843 whole entry): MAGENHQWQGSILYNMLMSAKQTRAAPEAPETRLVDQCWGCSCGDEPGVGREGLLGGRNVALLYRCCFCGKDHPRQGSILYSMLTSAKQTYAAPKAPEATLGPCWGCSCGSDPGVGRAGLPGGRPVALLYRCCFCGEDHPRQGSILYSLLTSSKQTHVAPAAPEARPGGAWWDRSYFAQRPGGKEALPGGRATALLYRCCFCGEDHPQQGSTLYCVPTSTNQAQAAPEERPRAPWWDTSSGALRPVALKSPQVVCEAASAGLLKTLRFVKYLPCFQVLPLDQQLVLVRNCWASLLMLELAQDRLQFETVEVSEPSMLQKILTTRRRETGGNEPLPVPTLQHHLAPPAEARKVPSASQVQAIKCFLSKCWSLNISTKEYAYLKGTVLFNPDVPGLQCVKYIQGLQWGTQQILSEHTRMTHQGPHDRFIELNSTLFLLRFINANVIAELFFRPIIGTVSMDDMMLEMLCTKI
The experiment in a line: Luminescence-based cell-based high throughput dose response assay for inhibitors of the orphan nuclear receptor subfamily 0, group B, member 1 (DAX1; NR0B1). [Related pubchem assays (depositor defined):AID504766, AID504790]. Format: functional.

Test [5] can be described thus: NIH-3T3 fibroblast cytotoxicity, dose response, cytotoxicity control, cell-based, fluorescence, Alamar Blue, secondary assay (AID 2327).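 Note: NIH-3T3 mouse fibroblasts cultured with fluconazole at 8 µg/mL.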 Type of test: functional. For orientation: Resazurin is reduced to fluorescent resorufin, in cell work by metabolically active cells.
In test [6] the target is Beta-galactosidase (Escherichia coli, UniProt Q8VNN2). The experiment in a line: PubChem AID 485352. Type of test: functional.
Chain of Beta-galactosidase (Q8VNN2 whole entry): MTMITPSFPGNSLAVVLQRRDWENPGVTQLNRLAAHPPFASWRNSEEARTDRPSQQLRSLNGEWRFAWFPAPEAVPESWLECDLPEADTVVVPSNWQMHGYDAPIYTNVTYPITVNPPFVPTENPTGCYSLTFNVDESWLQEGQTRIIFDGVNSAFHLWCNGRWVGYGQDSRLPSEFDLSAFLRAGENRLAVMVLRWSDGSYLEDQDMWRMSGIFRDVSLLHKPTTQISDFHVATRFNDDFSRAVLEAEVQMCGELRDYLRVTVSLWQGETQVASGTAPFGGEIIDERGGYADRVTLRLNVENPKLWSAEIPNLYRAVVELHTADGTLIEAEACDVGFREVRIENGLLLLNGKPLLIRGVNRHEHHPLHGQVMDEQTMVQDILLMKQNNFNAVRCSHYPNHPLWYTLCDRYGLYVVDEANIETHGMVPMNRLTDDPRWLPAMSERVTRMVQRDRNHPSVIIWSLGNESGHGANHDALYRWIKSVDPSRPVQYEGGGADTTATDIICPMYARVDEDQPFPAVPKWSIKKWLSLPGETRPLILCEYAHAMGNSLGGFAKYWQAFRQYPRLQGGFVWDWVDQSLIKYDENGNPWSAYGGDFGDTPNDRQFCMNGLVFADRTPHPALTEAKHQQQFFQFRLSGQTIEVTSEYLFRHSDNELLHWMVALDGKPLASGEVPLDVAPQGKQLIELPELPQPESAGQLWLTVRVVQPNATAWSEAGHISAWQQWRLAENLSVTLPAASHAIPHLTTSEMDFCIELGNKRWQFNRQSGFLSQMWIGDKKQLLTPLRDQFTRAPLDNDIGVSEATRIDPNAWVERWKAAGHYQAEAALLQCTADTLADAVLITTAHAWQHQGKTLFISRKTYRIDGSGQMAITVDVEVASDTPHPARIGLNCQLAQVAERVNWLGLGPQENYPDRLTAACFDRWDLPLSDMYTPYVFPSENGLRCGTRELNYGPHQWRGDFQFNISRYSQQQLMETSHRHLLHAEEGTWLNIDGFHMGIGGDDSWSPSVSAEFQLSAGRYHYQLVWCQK
A short description of test [7]: fluconazole-exposed Candida albicans growth modulators – fluorescence, retest, confirmation (AID 2467). Format: functional, cell-based.
The target in test [8] is T4, Type-1 angiotensin II receptor (Homo sapiens, UniProt P30556).
T4 sequence (P30556 whole entry): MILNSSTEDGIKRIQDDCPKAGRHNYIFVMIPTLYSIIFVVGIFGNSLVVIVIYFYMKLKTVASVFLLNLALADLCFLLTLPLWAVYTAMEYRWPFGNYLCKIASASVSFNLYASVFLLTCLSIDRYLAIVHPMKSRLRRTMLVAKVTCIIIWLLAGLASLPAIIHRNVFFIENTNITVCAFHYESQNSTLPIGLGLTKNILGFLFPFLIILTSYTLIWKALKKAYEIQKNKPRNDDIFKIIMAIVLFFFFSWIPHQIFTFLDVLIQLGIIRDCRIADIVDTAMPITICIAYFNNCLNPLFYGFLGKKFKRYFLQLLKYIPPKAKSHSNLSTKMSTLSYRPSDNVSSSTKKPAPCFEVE
Put plainly: antagonism of angiotensin II type 1 receptor – cell-based, uHTS hits, selectivity assay for APJ receptor antagonist project, dose response (AID 463214).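 Note: antagonist potency against angiotensin II stimulated AT1 response.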 Type of test: functional.

Test [9] concerns the target T5, Serine/threonine-protein phosphatase (Candida dubliniensis (strain CD36 / CBS 7987 / NCPF 3949 / NRRLY-17841) (Yeast), UniProt B9W6M3).
T5 sequence (B9W6M3 whole entry): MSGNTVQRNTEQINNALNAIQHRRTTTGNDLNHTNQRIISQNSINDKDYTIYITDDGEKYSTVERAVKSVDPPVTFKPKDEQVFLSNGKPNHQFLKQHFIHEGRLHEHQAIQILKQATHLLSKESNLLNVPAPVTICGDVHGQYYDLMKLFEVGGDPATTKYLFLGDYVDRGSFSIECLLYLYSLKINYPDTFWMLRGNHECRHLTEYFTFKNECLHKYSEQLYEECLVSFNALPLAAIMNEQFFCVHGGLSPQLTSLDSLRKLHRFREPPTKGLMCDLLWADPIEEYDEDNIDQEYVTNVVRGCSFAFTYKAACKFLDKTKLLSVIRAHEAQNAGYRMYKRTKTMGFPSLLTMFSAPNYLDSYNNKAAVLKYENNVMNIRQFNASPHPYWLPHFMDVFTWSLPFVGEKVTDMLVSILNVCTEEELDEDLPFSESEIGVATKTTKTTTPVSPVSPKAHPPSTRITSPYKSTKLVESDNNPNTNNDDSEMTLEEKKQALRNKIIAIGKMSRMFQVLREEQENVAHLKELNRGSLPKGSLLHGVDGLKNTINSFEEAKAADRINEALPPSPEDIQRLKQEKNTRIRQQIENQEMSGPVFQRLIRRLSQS
The experiment in a line: blockers of CaCl2-induced CDRE-lacZ signaling – S. cerevisiae, luminescence, secondary, dose response (AID 2388).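 Note: yeast reporter cells carrying a calcineurin-responsive lacZ construct stimulated with calcium chloride; luminescent beta-galactosidase reporter signal in whole cells rather than isolated phosphatase activity; potency for inhibition where a drop in reporter signal means calcineurin blockade.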 Type of test: functional, cell-based.

The target in test [10] is ATP-dependent molecular chaperone HSP82 (Candida albicans (strain WO-1) (Yeast), UniProt C4YTQ8). Put plainly: steroid-induced GRE reporter decrease in yeast – S. cerevisiae, luminescence, Hsp90 inhibitor project, dose response (AID 2400).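 Note: beta-galactosidase luminescence from glucocorticoid response element reporter as proxy for Hsp90 function; inhibitor potency where signal loss means Hsp90 inhibition.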 Format: functional, cell-based.
Chain of ATP-dependent molecular chaperone HSP82 (C4YTQ8 whole entry, the tested form may be a part): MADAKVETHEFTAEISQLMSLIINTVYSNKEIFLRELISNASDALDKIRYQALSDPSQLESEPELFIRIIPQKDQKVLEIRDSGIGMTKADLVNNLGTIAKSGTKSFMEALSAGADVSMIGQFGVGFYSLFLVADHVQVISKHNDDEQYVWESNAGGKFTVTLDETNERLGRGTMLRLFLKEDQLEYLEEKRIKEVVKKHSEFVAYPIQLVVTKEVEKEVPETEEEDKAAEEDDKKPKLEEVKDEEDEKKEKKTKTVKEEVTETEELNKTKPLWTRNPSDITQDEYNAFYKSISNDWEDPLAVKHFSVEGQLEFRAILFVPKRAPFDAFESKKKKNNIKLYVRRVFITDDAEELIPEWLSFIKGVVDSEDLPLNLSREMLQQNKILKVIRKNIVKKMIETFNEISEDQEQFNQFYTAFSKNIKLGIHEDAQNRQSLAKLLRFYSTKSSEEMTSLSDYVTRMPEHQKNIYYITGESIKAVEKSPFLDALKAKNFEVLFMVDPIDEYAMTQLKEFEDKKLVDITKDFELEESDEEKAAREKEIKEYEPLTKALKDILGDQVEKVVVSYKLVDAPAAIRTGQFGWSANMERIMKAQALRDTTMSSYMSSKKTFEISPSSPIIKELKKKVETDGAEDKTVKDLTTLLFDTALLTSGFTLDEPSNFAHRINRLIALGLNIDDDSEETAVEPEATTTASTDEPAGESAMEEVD
The target of test [11] is T6, Oxysterols receptor LXR-beta (Homo sapiens, UniProt P55055).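 Note: Cell-based luminescence dose-response assay of agonist activity at LXR, run as a confirmatory counterscreen to a daf-12 agonist screen; HEK293 cells with Gal4-LXR fusion and GAL4-driven luciferase reporter; agonist potency from rising luciferase signal of a Gal4-LXR reporter.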
T6 sequence (P55055 whole entry): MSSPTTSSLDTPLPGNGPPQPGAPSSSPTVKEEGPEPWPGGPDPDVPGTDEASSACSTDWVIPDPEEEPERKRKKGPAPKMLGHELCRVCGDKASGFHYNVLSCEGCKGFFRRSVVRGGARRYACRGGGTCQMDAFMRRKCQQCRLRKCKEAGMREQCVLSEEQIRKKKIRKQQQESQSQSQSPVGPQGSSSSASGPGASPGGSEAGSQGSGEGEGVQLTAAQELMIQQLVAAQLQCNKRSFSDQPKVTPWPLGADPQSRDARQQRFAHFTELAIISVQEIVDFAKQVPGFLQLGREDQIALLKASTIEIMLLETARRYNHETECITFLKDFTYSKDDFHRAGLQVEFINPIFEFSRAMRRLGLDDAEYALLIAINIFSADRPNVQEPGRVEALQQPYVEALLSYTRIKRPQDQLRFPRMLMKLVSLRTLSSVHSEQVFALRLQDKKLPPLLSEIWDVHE
Type of test: functional, cell-based.

A short description of test [12]: cells.
The target in test [13] is T7, Nucleotide-binding oligomerization domain-containing protein 2 (Homo sapiens, UniProt Q9HC29). Put plainly: inhibition of NOD2-driven NF-kB reporter – cell-based, luminescence, uHTS, HEK293 (AID 1566). Type of test: functional.
T7 sequence (Q9HC29 whole entry, the tested form may be a part): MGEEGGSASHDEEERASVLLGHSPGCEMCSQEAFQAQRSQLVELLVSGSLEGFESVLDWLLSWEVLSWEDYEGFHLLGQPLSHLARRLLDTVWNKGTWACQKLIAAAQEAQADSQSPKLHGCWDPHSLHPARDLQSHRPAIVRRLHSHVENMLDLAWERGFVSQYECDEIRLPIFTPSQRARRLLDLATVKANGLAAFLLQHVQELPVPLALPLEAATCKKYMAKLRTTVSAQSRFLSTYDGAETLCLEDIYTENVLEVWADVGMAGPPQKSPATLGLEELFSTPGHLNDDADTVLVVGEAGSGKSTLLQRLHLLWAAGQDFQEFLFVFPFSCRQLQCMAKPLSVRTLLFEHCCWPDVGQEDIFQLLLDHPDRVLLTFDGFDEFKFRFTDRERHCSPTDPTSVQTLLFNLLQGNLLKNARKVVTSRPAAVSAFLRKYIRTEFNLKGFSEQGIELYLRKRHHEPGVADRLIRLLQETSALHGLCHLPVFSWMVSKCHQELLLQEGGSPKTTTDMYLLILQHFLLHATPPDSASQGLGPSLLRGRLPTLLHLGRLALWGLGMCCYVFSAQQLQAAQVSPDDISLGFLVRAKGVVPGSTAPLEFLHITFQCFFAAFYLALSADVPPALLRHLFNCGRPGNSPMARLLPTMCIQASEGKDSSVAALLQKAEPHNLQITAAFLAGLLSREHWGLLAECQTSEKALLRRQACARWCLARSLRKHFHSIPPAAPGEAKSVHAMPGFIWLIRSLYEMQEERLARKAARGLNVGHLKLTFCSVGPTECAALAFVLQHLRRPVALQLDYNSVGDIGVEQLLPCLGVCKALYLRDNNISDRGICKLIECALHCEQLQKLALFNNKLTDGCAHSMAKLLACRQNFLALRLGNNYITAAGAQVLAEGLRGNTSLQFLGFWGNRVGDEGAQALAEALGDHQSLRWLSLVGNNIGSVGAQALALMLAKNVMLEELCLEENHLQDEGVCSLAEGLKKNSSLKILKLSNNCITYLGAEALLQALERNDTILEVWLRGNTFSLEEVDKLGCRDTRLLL
Test [14] deals with Tumor necrosis factor (Homo sapiens, UniProt P01375). Put plainly: analog potency on TNFa NF-kB signaling – cell-based, revised, SAR follow-up (AID 2337). Format: functional.
Chain of Tumor necrosis factor (P01375 whole entry, the tested form may be a part): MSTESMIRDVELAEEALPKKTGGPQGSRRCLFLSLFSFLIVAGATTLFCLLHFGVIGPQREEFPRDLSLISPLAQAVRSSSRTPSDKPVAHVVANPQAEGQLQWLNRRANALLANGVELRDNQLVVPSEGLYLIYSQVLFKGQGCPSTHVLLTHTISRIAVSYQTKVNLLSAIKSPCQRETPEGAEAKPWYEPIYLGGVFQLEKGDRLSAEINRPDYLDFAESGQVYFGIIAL
Test [15] addresses T8, Nucleotide-binding oligomerization domain-containing protein 1 (Homo sapiens, UniProt Q9Y239).
T8 sequence (Q9Y239 whole entry): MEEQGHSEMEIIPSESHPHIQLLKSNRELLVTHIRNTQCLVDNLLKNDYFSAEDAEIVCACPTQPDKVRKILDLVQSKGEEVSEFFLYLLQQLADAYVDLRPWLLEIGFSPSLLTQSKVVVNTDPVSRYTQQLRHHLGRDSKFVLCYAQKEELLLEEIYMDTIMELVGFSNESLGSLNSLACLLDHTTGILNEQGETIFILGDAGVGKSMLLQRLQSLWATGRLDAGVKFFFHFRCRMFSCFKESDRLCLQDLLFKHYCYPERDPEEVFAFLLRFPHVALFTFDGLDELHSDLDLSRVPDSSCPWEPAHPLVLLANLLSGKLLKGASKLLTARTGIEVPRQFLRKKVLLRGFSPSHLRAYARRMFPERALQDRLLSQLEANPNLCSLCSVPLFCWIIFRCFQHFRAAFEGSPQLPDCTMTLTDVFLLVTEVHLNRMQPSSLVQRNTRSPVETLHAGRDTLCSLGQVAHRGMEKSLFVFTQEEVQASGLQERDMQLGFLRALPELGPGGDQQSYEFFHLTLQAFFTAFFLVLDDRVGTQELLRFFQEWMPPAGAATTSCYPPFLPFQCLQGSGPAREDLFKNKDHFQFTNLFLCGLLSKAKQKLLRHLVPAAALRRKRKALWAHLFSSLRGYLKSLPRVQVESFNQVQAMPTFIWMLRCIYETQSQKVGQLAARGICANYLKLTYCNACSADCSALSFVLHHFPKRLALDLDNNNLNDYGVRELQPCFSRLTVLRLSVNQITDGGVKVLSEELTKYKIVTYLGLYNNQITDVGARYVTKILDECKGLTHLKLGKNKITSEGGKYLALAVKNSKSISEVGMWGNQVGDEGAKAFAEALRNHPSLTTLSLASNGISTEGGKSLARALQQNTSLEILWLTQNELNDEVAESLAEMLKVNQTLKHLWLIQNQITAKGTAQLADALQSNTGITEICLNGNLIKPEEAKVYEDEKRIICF
The experiment in a line: blockers of NOD1 pathway activity – revised, SAR follow-up (AID 2333). Type of test: functional.

In test [16] the target is T7, Nucleotide-binding oligomerization domain-containing protein 2. The experiment in a line: PubChem AID 2334. Format: functional.
Test [17] relates to Jurkat. Put plainly: SAR Analysis of small molecule inhibitors of […] specific antigen receptor-induced NF-kB activation in a Jurkat cell line using a luminescence assay - Set 3. [Related pubchem assays (depositor defined):AID435022, AID435025, AID465]. The following applies: Homo sapiens. Format: functional, cell-based.
The subject of test [18] is HEK293. The experiment in a line: SAR Analysis of small molecule inhibitors of B-cell specific antigen receptor-induced NF-kB activation in a HEK-293T cell line using a luminescence assay - Set 2. [Related pubchem assays (depositor defined):AID435022, AID435025, AID489021]. The following applies: Homo sapiens. Format: functional, cell-based.
Test [19] concerns HEK293. The experiment in a line: HEK293T cell viability loss, resazurin readout – resazurin fluorescence, cytotoxicity control for NF-kB activator project, SAR follow-up (AID 493251). The conditions noted are these: Homo sapiens. Format: functional, cell-based.

Activity calls are given as the source filed them.

One may read the EC50 as the concentration at which the effect is half-maximal. As usually defined, the IC50 is the concentration at which inhibition is half-maximal.

`Fc1ccc(-c2nc3c(Cl)cc(C(F)(F)F)cn3c2Cl)cc1`: the results for the EC50 in test [1] and in test [2] were 41.6 µM (active) and 37.1 µM (active), respectively. In addition, the IC50 in test [3] and in test [4] was > 67.6 µM (inactive) throughout.
In the case of `CCC(C)c1ccc(O)c(NC(=S)NC(=O)c2cccnc2)c1` (stereo unspecified), the EC50 in test [5] was > 150 µM (inactive); in [6], > 40 µM (inactive); in [7], 0.632 µM (active); in [9] it was > 180 µM (inactive); in [10], 48.9 µM (active). Besides, the IC50 in [8] was 14 µM (active).
In the case of `Cc1ccc(-c2cc(-c3ccc(F)cc3)[nH]n2)c(O)c1`, the IC50 in test [3] and in [4] was > 67.5 µM (inactive) each time. The EC50 in test [11] and in test [12] was > 67.5 µM (inactive) throughout.
For the compound `Fc1ccc(NC(=S)Nc2nccs2)cc1`, the EC50 is > 40 µM (inactive) in test [6] and > 20 µM (inactive) in test [13]. Besides, the IC50 in test [8] was 25.2 µM (not active); in test [14] it was > 20 µM (inactive); in test [15], > 20 µM (inactive); in test [16] it was > 20 µM (inactive).
As for `CC(C)(C)c1ccc(-c2noc(CCC(=O)Nc3cccc([N+](=O)[O-])c3)n2)cc1`, the IC50 in test [17] is 60.7 µM (inactive); in test [18] it was 3.73 µM (active); in test [19], 22.1 µM (inactive).
With `CCOc1ccc(-c2nc(CSCC(=O)NCCc3ccc(C)cc3)c(C)o2)cc1`, the IC50 in test [17] is 49.8 µM (inactive); in test [18], 40.2 µM (inactive); in test [19] it was > 80 µM (inactive).

Values taken from ChEMBL document CHEMBL1201862, “PubChem BioAssay data set” (2004).
